Data taken from patent US10934283B2, “COMT inhibiting methods and compositions” (LIEBER INSTITUTE FOR BRAIN DEVELOPMENT, priority 2015, dated 2021).
Counter-ions that a name gives are not always drawn.

Molecular target: T1, catechol-O-methyltransferase (COMT) (Homo sapiens, UniProt P21964)
T1 construct: M51A variant) was expressed in HEK 293F cells
T1 sequence (P21964 52-271 limits assumed): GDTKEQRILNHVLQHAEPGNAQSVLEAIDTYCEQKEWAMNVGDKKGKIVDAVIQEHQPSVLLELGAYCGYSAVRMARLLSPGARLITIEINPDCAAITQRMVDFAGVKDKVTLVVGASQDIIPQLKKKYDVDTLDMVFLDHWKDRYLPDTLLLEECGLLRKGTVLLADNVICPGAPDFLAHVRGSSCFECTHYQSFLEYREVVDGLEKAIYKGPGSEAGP
Experiment: COMT inhibition assay (HTRF, production of SAH from SAM)
Assay type: biochemical
Settings: table does not say MB-COMT or S-COMT
Procedure: The ability of compounds to inhibit the activity of catechol-O-methyltransferase (COMT) was determined by a homogenous time-resolved fluorescent (HTRF) assay (Lina et al, 2012; kit from CisBio, Codolet, France). This assay measures the production of S-adenosyl homocysteine (SAH) from the methyl donor S-adenosyl methionine. Recombinant human membrane bound COMT (MB-COMT; M51A variant) was expressed in HEK 293F cells using 293Fectin (Life Technologies, Gent, Belgium) and membranes prepared. The membranes were re-suspended in buffer (20 mM Tris/HCl pH 7; 10 mM glycerol; 2 mM MgCl2; 10 mM NaCl), aliquoted and stored at −80° C. Recombinant human soluble COMT(S-COMT), Val158 variant and a hexa-His tag on the N-terminus, was purified using Ni-NTA chromatography, the His tag removed and stored in buffer as above.
For the human MB-COMT assay, membranes (62 ng/well) were incubated with SAM (20 μM final, CisBio) and dopamine (1.5 μM final; Sigma H8502, Diegem, Belgium) in the presence or absence of varying concentrations (typically 10 concentrations ranging from 10 ? M to 0.1 nM) of compound for 40 min at 37° C. in 384-well microtiter plates (10 ? l per well final volume). The reaction was terminated by the addition of acylation buffer and the amount of SAH produced determined according to manufacturer's instructions. Specific inhibition as that inhibited by a high concentration of tolcapone and all experiments were validated using a control curve to tolcapone.
The human S-COMT assay was performed as above except that 0.15 ng enzyme/well was incubated with SAM ([…]) and dopamine (100 μM final) for 15 min at 37° C. and SAH production determined.
HTRF readings were performed using a Perkin Elmer Envision and results expressed as concentration of SAH produced using a standard curve. Results were analyzed using non-linear regression to the 4-parameter logistic equation and pIC50 (−log 10 concentration of drug which inhibits enzyme activity/SAH production by 50%) determined.

SMILES: O=c1cc2n(cc1O)CCN(Cc1coc3ccccc3c1=O)C2 [Example 41, 7-hydroxy-2-[(4-oxo-4H-chromen-3-yl)methyl]-1,2,3,4-tetrahydro-8H-pyrido[1,2-a]pyrazin-8-one]
- Activity range (pIC50): ++ (two plus signs (++) is associated with a pIC50 of from about 6 to 7)

SMILES: O=c1cc2n(cc1O)CCN(Cc1n[nH]c3ccccc13)C2 [Example 42, 7-hydroxy-2-(1H-indazol-3-ylmethyl)-1,2,3,4-tetrahydro-8H-pyrido[1,2-a]pyrazin-8-one]
- Activity range (pIC50): ++ (two plus signs (++) is associated with a pIC50 of from about 6 to 7)

SMILES: O=c1cc2n(cc1O)CCN(Cc1c[nH]nc1-c1cccs1)C2 [Example 43, 7-hydroxy-2-{[3-(thiophen-2-yl)-1H-pyrazol-4-yl]methyl}-1,2,3,4-tetrahydro-8H-pyrido[1,2-a]pyrazin-8-one]
- Activity range (pIC50): ++ (two plus signs (++) is associated with a pIC50 of from about 6 to 7)

SMILES: O=c1cc2n(cc1O)CCN(Cc1ccccc1C(F)(F)F)C2 [Example 44, 7-hydroxy-2-[2-(trifluoromethyl)benzyl]-1,2,3,4-tetrahydro-8H-pyrido[1,2-a]pyrazin-8-one]
- Activity range (pIC50): +++ (three plus signs (+++) is associated with a pIC50 of above about 7)

SMILES: O=c1cc2n(cc1O)CCN(Cc1c[nH]nc1-c1ccccc1)C2 [Example 45, 7-hydroxy-2-[(3-phenyl-1H-pyrazol-4-yl)methyl]-1,2,3,4-tetrahydro-8H-pyrido[1,2-a]pyrazin-8-one]
- Activity range (pIC50): ++ (two plus signs (++) is associated with a pIC50 of from about 6 to 7)

SMILES: COc1cccc(OC)c1CN1CCn2cc(O)c(=O)cc2C1 [Example 46, 2-(2,6-dimethoxybenzyl)-7-hydroxy-1,2,3,4-tetrahydro-8H-pyrido[1,2-a]pyrazin-8-one]
- Activity range (pIC50): ++ (two plus signs (++) is associated with a pIC50 of from about 6 to 7)

SMILES: O=c1cc2n(cc1O)CCN(Cc1ccc(Oc3ccccc3)cc1)C2 [Example 47, 7-hydroxy-2-(4-phenoxybenzyl)-1,2,3,4-tetrahydro-8H-pyrido[1,2-a]pyrazin-8-one]
- Activity range (pIC50): +++ (three plus signs (+++) is associated with a pIC50 of above about 7)

SMILES: O=c1cc2n(cc1O)CCN(Cc1ccc3c(c1)OCCO3)C2 [Example 48, 2-(2,3-dihydro-1,4-benzodioxin-6-ylmethyl)-7-hydroxy-1,2,3,4-tetrahydro-8H-pyrido[1,2-a]pyrazin-8-one]
- Activity range (pIC50): ++ (two plus signs (++) is associated with a pIC50 of from about 6 to 7)

SMILES: CC(Cc1ccc2c(c1)OCO2)CN1CCn2cc(O)c(=O)cc2C1 (stereo not drawn) [Example 49, 2-[3-(1,3-benzodioxol-5-yl)-2-methylpropyl]-7-hydroxy-1,2,3,4-tetrahydro-8H-pyrido[1,2-a]pyrazin-8-one]
- Activity range (pIC50): ++ (two plus signs (++) is associated with a pIC50 of from about 6 to 7)

SMILES: COc1ccc(CN2CCn3cc(O)c(=O)cc3C2)cc1 [Example 50, 7-hydroxy-2-(4-methoxybenzyl)-1,2,3,4-tetrahydro-8H-pyrido[1,2-a]pyrazin-8-one]
- Activity range (pIC50): ++ (two plus signs (++) is associated with a pIC50 of from about 6 to 7)

SMILES: COc1ccccc1CN1CCn2cc(O)c(=O)cc2C1 [Example 51, 7-hydroxy-2-(2-methoxybenzyl)-1,2,3,4-tetrahydro-8H-pyrido[1,2-a]pyrazin-8-one]
- Activity range (pIC50): ++ (two plus signs (++) is associated with a pIC50 of from about 6 to 7)

SMILES: O=c1cc2n(cc1O)CCN(Cc1ccc(OCc3ccccc3)cc1)C2 [Example 52, 2-[4-(benzyloxy)benzyl]-7-hydroxy-1,2,3,4-tetrahydro-8H-pyrido[1,2-a]pyrazin-8-one]
- Activity range (pIC50): +++ (three plus signs (+++) is associated with a pIC50 of above about 7)

SMILES: O=c1cc2n(cc1O)CCN(Cc1cccc(OCc3ccccc3)c1)C2 [Example 53, 2-[3-(benzyloxy)benzyl]-7-hydroxy-1,2,3,4-tetrahydro-8H-pyrido[1,2-a]pyrazin-8-one]
- Activity range (pIC50): +++ (three plus signs (+++) is associated with a pIC50 of above about 7)

SMILES: O=c1cc2n(cc1O)CCN(Cc1ccc3nsnc3c1)C2 [Example 54, 2-(2,1,3-benzothiadiazol-5-ylmethyl)-7-hydroxy-1,2,3,4-tetrahydro-8H-pyrido[1,2-a]pyrazin-8-one]
- Activity range (pIC50): ++ (two plus signs (++) is associated with a pIC50 of from about 6 to 7)

SMILES: O=c1cc2n(cc1O)CCN(Cc1ccccc1OCc1ccccc1)C2 [Example 55, 2-[2-(benzyloxy)benzyl]-7-hydroxy-1,2,3,4-tetrahydro-8H-pyrido[1,2-a]pyrazin-8-one]
- Activity range (pIC50): ++ (two plus signs (++) is associated with a pIC50 of from about 6 to 7)

SMILES: Cc1ccc(-c2nc3sccn3c2CN2CCn3cc(O)c(=O)cc3C2)cc1 [Example 56, 7-hydroxy-2-{[6-(4-methylphenyl)imidazo[2,1-b][1,3]thiazol-5-yl]methyl}-1,2,3,4-tetrahydro-8H-pyrido[1,2-a]pyrazin-8-one]
- Activity range (pIC50): ++ (two plus signs (++) is associated with a pIC50 of from about 6 to 7)

SMILES: O=c1cc2n(cc1O)CCN(Cc1ccc(Cl)cc1Cl)C2 [Example 57, 7-hydroxy-2-[(2,4-dichlorophenyl)methyl]-1,2,3,4-tetrahydro-8H-pyrido[1,2-a]pyrazin-8-one]
- Activity range (pIC50): +++ (three plus signs (+++) is associated with a pIC50 of above about 7)

SMILES: O=c1cc2n(cc1O)CCN(Cc1ccccc1Cl)C2 [Example 58, 2-[(2-chlorophenyl)methyl]-7-hydroxy-3,4-dihydro-1H-pyrido[1,2-a]pyrazin-8-one]
- Activity range (pIC50): +++ (three plus signs (+++) is associated with a pIC50 of above about 7)

SMILES: O=c1cc2n(cc1O)CCN(Cc1c(F)cccc1Cl)C2 [Example 59, 2-[(2-chloro-6-fluoro-phenyl)methyl]-7-hydroxy-3,4-dihydro-1H-pyrido[1,2-a]pyrazin-8-one]
- Activity range (pIC50): +++ (three plus signs (+++) is associated with a pIC50 of above about 7)

SMILES: O=c1cc2n(cc1O)CCN(Cc1c(Cl)cccc1Cl)C2 [Example 60, 2-[(2,6-dichlorophenyl)methyl]-7-hydroxy-3,4-dihydro-1H-pyrido[1,2-a]pyrazin-8-one]
- Activity range (pIC50): +++ (three plus signs (+++) is associated with a pIC50 of above about 7)

SMILES: O=c1cc2n(cc1O)CCN(Cc1ccc(F)cc1Cl)C2 [Example 61]
- Activity range (pIC50): +++ (three plus signs (+++) is associated with a pIC50 of above about 7)

SMILES: O=c1cc2n(cc1O)CCN(Cc1c(F)cccc1F)C2 [Example 62, 2-[(2,6-difluorophenyl)methyl]-7-hydroxy-3,4-dihydro-1H-pyrido[1,2-a]pyrazin-8-one]
- Activity range (pIC50): +++ (three plus signs (+++) is associated with a pIC50 of above about 7)

SMILES: O=c1cc2n(cc1O)CCN(Cc1ccc(Br)cc1Cl)C2 [Example 63, 2-[(4-bromo-2-chloro-phenyl)methyl]-7-hydroxy-3,4-dihydro-1H-pyrido[1,2-a]pyrazin-8-one hydrochloride]
- Activity range (pIC50): +++ (three plus signs (+++) is associated with a pIC50 of above about 7)

SMILES: O=c1cc2n(cc1O)CCN(Cc1ccc(C3CC3)cc1Cl)C2 [Example 64, 2-[(2-chloro-4-cyclopropyl-phenyl)methyl]-7-hydroxy-3,4-dihydro-1H-pyrido[1,2-a]pyrazin-8-one hydrochloride]
- Activity range (pIC50): +++ (three plus signs (+++) is associated with a pIC50 of above about 7)
